# Where a SMILES comes first, the peptide text is derived from it. [ ]: non-standard residue; d: D form. Nle = CCCC[C@H](N)C(=O)O
# Columns and labels:
# [1] = system: A375 melanoma cells; assay: In vitro cytotoxicity, MTT colorimetric assay; type: cell-based, human
# Description: Cells were seeded in a 96-well plate and allowed to adhere overnight prior to adding the compound [29]. After 72 h of treatment in serum-free media, an MTT solution was added to each well to give a final concentration of 0.5 mg/mL and was incubated for 3 h. Formed crystals were solubilized, and their absorbance was measured at 595 nm.
# [2] = system: A375 human melanoma xenograft; assay: In vivo xenograft melanoma mouse model; conditions: KK-11 alone, in vivo studies
# Description: The study was carried out in compliance with the ARRIVE guidelines. All the animal studies and procedures were approved by the IACUC at Chapman University and conducted in compliance with the policies of Chapman University, in addition to those of federal, state, and local animal welfare authorities. Nude mice (NU/NU) were purchased from Charles River (Wilmington, MA, USA) and were housed and maintained in the Chapman University vivarium under pathogen-free conditions. A375 cells were suspended in cold Matrigel and injected subcutaneously into the flank of each mouse (1 × 10^6 cells per mouse) to establish tumors. The mice were treated by tail vein injections of 1× PBS, D-aa KK-11 alone (1.75 mg/kg), MAC-3-190 (5 mg/kg) alone, or D-aa KK-11 and MAC-3-190 co-treatment for 21 days. For the co-treatment, the solution of D-aa KK-11 and MAC-3-190 (1:11 molar ratio) was mixed gently and incubated at room temperature for 30 min before tail vein injection. The growth of the tumors was monitored three times a week and measured using digital Vernier calipers. The tumor volume (mm^3) was calculated as [Length × (Width^2)]/2 (in mm). The mice were sacrificed after 21 days per IACUC policy when the control group’s average tumor size reached 2000 mm^3. Tumor xenografts were removed and weighed.
# [3] = Serum stability (human serum, RP-HPLC); type: in vitro ADME; conditions: human serum incubation, 37 °C, data not shown
# Description: Human serum (250 µL) was thawed to room temperature and was added to DMEM media (650 µL). The mixture was kept in a 37 °C incubator to mimic human body temperature for 15 min. The peptide (100 µL, 1 mM) was dissolved (dispersed) in sterile water. The peptide solution was added to the pre-warmed human serum and DMEM mixture. The mixture was incubated at 37 °C. At different time points (0, 0.5, 1, 5, and 24 h) aliquots (100 µL) were removed and added to methanol (200 µL). Each time point sample was kept at 4 °C for 5 min, and then was centrifuged at 500× g for 15 min to separate serum proteins. The supernatant was injected into the RP-HPLC, and the major peaks were collected. The peak’s mass was determined using MALDI-TOF mass analysis. The serum stabilities of the D-aa KK-11 were determined by comparing the HPLC peaks (AUC) for the intact peptides at different time points.
# [4] = system: human melanoma cells (wm3211, Sk-mel-28, A375); assay: In vitro cellular uptake of FITC-labeled peptides by flow cytometry; type: cell-based; conditions: FITC-labeled peptides 0.5 and 1 µM, A375, Sk-mel-28, wm3211, compared with FITC alone
# Description: The peptide (FITC-labeled) concentration was determined using a Shimadzu BioSpec-nano Micro-volume UV-Vis spectrophotometer (Shimadzu, Kyoto, Japan). Human melanoma cells (wm3211, Sk-mel-28, and A375) were incubated with FITC or FITC-labeled peptides at final concentrations of 0.5 µM and 1 µM for 2 h. After thorough washing with cold 1× PBS, the melanoma cells in a single cell suspension were collected for flow cytometry analysis (BD FACSVerse, BD Biosciences, Franklin Lakes, NJ, USA). The mean fluorescence density of 10,000 cells was analyzed and compared to that of control cells, as described previously.
# [5] = system: A375 melanoma cells; assay: Fluorescence microscopy of peptide uptake; type: cell-based, human; conditions: 0.5 µM, 30 min incubation, confocal microscopy, DAPI nuclei
# Description: A375 melanoma cells were plated on coverslips and allowed to adhere overnight to 75% confluence, then incubated with 0.5 µM of FITC-KK-11 for 30 min at room temperature. After treatment, cells were washed three times in 1× PBS then fixed with 4% formaldehyde in 1× PBS for 15 min at room temperature. Fixed cells were then washed three times in 1× PBS for 5 min each, followed by curing in the dark with ProLong™ Gold Antifade Mountant with DAPI (P36935, Life Technologies Corporation, Eugene, OR, USA) for 1 h. Slides were visualized and recorded using the Nikon Eclipse Ti2-E confocal microscopy system (Nikon, Melville, NY, USA) using green and blue filters with 60× magnification.
# [6] = system: athymic nude mice bearing human melanoma A375 tumors; assay: In vivo and ex vivo imaging (biodistribution) in mice bearing A375 tumors; conditions: 8 µg per mouse
# Description: The study was carried out in compliance with Animal Research: Reporting of In Vivo Experiments (ARRIVE) guidelines. All the animal procedures were approved by the Institutional Animal Care and Use Committee (IACUC) at Chapman University and conducted in compliance with the policies of Chapman University, in addition to those of federal, state, and local animal welfare authorities. Male and female athymic nude mice (4–6 weeks old) were kept (5 in each cage) in a pathogen-free environment. Approximately 1 million human melanoma A375 cells (0.1 mL in normal saline), mixed with 0.1 mL cold Matrigel (#354248; Corning, Corning, NY, USA), were injected subcutaneously into the flank. The tumor size was measured with a caliper, and body weight was recorded once a week. When the tumor size reached approximately 800–1000 mm^3, as calculated using the following formula: [Length × (Width^2)]/2 (in mm), mice were processed for in vivo or ex vivo imaging.
# For in vivo imaging, normal saline or VivoTag-KK-11 at a dose of 8 µg per mouse was injected into the mice via the tail vein (n = 2 for each time point). The animals were then scanned at different time intervals (0.5, 2, 6, and 24 h) using an IVIS Spectrum in vivo imaging system (PerkinElmer, Waltham, MA, USA). The mice were imaged for 0.5 s, 10 bin, level B at an emission wavelength of 688 ± 5 nm. Imaging was limited to no more than once a day and was conducted under continuously maintained isoflurane. Mice were maintained on alfalfa-free diets to minimize the background fluorescence. All the study animals survived through the in vivo imaging procedure.
# For ex vivo imaging at defined time intervals (5, 15, 30 min, followed by 1, 1.5, 2, 3, 4, 6, 24, and 48 h) following fluorescence conjugate injection, animals were euthanized via carbon dioxide inhalation (n = 2 for each time point); tumor, liver, spleen, heart, lungs, brain, and kidneys were collected and briefly rinsed with saline. The organs were then imaged for 0.5 s, 10 bin, level B at an emission wavelength of 688 ± 5 nm using an IVIS Spectrum imaging system.
compound,measurement,setting,value
"COc1cccc2c1C(=O)c1c(O)c3c(c(O)c1C2=O)C[C@@](O)(C(=O)CO)C[C@@H]3O[C@H]1C[C@H](N)[C@H](O)[C@H](C)O1 [DOX, doxorubicin, reference compound]","Cell viability, % of control","[1]; A375, DOX 0.5 µM alone, 72 h, serum-free media, MTT",62 % of control
same,"Cell viability (cells survived), % of control","[1]; A375, DOX 1 µM alone, 72 h, MTT",24%
CCCC[C@H](NC(=O)[C@H](Cc1c[nH]c2ccccc12)NC(=O)[C@@H]1CCCN1C(=O)[C@@H](N)C(C)C)C(=O)N[C@@H](CCC(=O)O)C(=O)N1CCC[C@H]1C(=O)N[C@@H](C)C(=O)N[C@@H](Cc1ccc(O)cc1)C(=O)N[C@@H](CCC(N)=O)C(=O)N[C@@H](CCCNC(=N)N)C(=O)N[C@@H](Cc1ccccc1)C(=O)N[C@@H](CC(C)C)C(N)=O [KK-11] (H-VPW[Nle]EPAYQRFL-NH2),"Cytotoxicity of peptide alone, in vivo",[2],No cytotoxicity
same,Time to undetectable level of intact peptide in human serum,[3],≤ 30 min
same,Enhancement of MAC-3-190 cytotoxicity by KK-11 co-treatment,"[1]; A375, KK-11 1 µM with MAC-3-190 at 25% IC50, 50% IC50, IC50 and 2× IC50, 72 h, MTT, vs MAC-3-190 alone",did not observe any significant enhancement of cytotoxicity
same,Effect of sequential KK-11 then DOX treatment on DOX cytotoxicity,"[1]; A375, pretreated with KK-11 for 4 h, washed away, then DOX 72 h, MTT",failed to produce any changes on DOX cytotoxicity
same,"Cytotoxicity of peptide alone, in vitro","[1]; KK-11 alone, in vitro studies",No cytotoxicity
"FITC-Aβ-VPWXEPAYQRFL [FITC-KK-11, KK-11 labeled with FITC at the N-terminus via β-alanine spacer]",Uptake of FITC-labeled peptide by melanoma cells,[4],highest
same,Cellular localisation of FITC-labeled peptide,[5],present in the cytoplasm
"VivoTag-Aβ-VPWxEPAYQrFL [VivoTag-KK-11, VivoTag 680 XL labeled D-amino acid analogue of KK-11]","Time post injection up to which fluorescence remained detectable in tumor xenografts, ex vivo imaging","[6]; IV tail vein, A375 xenograft nude mice, excised tumors, IVIS, n = 2 per time point",24 h
same,"Time after injection by which the peptide distributed to the tumor (and lungs, heart, spleen), ex vivo imaging","[6]; tail vein, A375 xenograft nude mice, IVIS, n = 2 per time point",≤ 5 min
same,Brain penetration,"[6]; tail vein, ex vivo organ imaging",no brain penetration was observed
same,Time after injection by which the peptide cleared from other organs,"[6]; tail vein, ex vivo organ imaging (lungs, heart, spleen)",≤ 6 h
same,Time after injection up to which the peptide was predominantly detected in kidneys,"[6]; tail vein, ex vivo organ imaging, after 6 h",48 h

# From paper PMC9145755, “A Small Peptide Increases Drug Delivery in Human Melanoma Cells” (Pharmaceutics, 2022)
